Experimental data published in ChEMBL document CHEMBL4610109, “Targeting Orthosteric and Allosteric Pockets of Aromatase via Dual-Mode Novel Azole Inhibitors” (ACS Med Chem Lett, 2020).

Assays:
[1] = tested on: MDA-MB-231; test: Growth inhibition of human ER-negative MDA-MB-231 cells incubated for 72 hrs by cell counter method; assay type: functional; settings: MDA-MB-231, 72 h
[2] = tested on: MCF7; test: Growth inhibition of human ER-positive MCF7 cells incubated for 72 hrs by cell counter method; assay type: functional; settings: MCF7, 72 h
[3] = target: T1, Aromatase (Homo sapiens, UniProt P11511); test: Inhibition of recombinant human aromatase preincubated for 10 mins followed by substrate and beta-NADP+ addition and measured for 60 mins by fluorescence based assay
T1 sequence (P11511 whole entry): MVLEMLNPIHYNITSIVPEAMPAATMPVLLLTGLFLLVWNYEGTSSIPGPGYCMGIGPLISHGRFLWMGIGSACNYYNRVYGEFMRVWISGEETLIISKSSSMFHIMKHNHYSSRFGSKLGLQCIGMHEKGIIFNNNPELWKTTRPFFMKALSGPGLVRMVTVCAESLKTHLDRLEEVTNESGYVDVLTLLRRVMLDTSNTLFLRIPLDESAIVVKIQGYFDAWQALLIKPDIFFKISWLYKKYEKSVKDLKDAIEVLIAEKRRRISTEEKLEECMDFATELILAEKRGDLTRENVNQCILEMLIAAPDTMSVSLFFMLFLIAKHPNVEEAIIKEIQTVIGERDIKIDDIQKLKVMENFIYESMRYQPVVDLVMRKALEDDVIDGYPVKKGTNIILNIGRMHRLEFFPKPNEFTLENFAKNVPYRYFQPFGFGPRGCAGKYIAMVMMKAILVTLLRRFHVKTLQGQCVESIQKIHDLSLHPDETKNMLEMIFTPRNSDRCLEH

IC50 [3] [µM]	SMILES	GI50 [1] [µM]	GI50 [2] [µM]
–	N#Cc1ccc(C(c2ccc(C#N)cc2)n2cncn2)cc1 [LETROZOLE]	34	–
–	O=c1c2ccccc2oc2cccc(Cn3ccnc3)c12	44.3	59
0.77	CCC#CCOc1ccc2c(=O)c3ccc(Cn4ccnc4)cc3oc2c1	> 100	> 100
5.55	CCC#CCOc1cc(Cn2ccnc2)c2oc3ccccc3c(=O)c2c1	21.1	52.3
2.85	CCC#CCOc1cc(Cn2ccnc2)c2c(=O)c3ccccc3oc2c1	17.5	6.3
–	O=c1c2ccccc2oc2cc(Cn3ccnc3)ccc12	30.4	19.9
–	O=c1c2ccccc2oc2c(Cn3ccnc3)cccc12	58.3	69.1
